Source: ChEMBL document CHEMBL1152038, “Quaternised renzapride as a potent and selective 5-HT4 receptor agonist” (Bioorg Med Chem Lett, 1993)
pEC50, pKi: −log10 of the molar value.

The compounds below were run against 5-hydroxytryptamine receptor 4 (Rattus norvegicus) (UniProt Q62758) (assay: Tested for its efficacy against the 5-hydroxytryptamine 4 receptor located in the rat esophageal tunica muscularis mucosae). Conditions: Muscularis mucosa.
Format: tissue-based

Sequence of 5-hydroxytryptamine receptor 4 (Rattus norvegicus) (Q62758 whole entry): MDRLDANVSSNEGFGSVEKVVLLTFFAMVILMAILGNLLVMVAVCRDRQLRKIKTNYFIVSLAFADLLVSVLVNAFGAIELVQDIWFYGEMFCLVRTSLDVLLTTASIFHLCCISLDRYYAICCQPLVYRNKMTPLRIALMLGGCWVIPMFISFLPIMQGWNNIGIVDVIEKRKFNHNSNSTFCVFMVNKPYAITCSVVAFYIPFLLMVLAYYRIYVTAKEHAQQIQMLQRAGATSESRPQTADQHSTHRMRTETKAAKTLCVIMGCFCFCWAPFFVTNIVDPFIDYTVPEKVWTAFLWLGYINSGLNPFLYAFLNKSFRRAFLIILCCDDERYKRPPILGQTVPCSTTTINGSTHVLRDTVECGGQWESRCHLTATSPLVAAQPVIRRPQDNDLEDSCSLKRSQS

| SMILES | Intrinsic activity |
| --- | --- |
| CCCC[N+]12CCCC(C1)C(NC(=O)c1cc(Cl)c(N)cc1OC)CC2 (centres undefined) | 0.79 |
| CCN(CC)CCNC(=O)c1cc(Cl)c(N)cc1OC [METOCLOPRAMIDE] | 0.8 |
| CCn1c(=O)n(C(=O)NC2CC3CCC(C2)N3C)c2ccccc21 (centres undefined) | 0.7 |
| CC(C)n1c(=O)n(C(=O)NC2CC3CCC(C2)N3C)c2ccccc21 (centres undefined) | 0.9 |
| COc1cc(N)c(Cl)cc1C(=O)NC1CCN2CCCC1C2 (centres undefined) [RENZAPRIDE] | 0.8 |

These compounds were tested against 5-hydroxytryptamine receptor 4 (Rattus norvegicus, UniProt Q62758) (assay: Tested for its agonist potency against the 5-hydroxytryptamine 4 receptor located in the rat esophageal tunica muscularis mucosae). Conditions: not given.
Sequence of 5-hydroxytryptamine receptor 4 (Q62758 whole entry): as above
Format: functional, tissue-based, Muscularis mucosa

| SMILES | pEC50 |
| --- | --- |
| CCCC[N+]12CCCC(C1)C(NC(=O)c1cc(Cl)c(N)cc1OC)CC2 (centres undefined) | 8.02 |
| CCn1c(=O)n(C(=O)NC2CC3CCC(C2)N3C)c2ccccc21 (centres undefined) | 8.00 |
| CC(C)n1c(=O)n(C(=O)NC2CC3CCC(C2)N3C)c2ccccc21 (centres undefined) | 7.90 |
| COc1cc(N)c(Cl)cc1C(=O)NC1CCN2CCCC1C2 (centres undefined) [RENZAPRIDE] | 7.20 |

Each compound was assayed against T1, Serotonin 3 (5-HT3) receptor (Rattus norvegicus, UniProt P35563+Q9JJ16) (assay: Tested for its binding affinity by measuring its ability to displace [3H]granisetron from 5-hydroxytryptamine 3 receptor in rat cortex). Conditions: not given.
T1 sequence (P35563 whole entry): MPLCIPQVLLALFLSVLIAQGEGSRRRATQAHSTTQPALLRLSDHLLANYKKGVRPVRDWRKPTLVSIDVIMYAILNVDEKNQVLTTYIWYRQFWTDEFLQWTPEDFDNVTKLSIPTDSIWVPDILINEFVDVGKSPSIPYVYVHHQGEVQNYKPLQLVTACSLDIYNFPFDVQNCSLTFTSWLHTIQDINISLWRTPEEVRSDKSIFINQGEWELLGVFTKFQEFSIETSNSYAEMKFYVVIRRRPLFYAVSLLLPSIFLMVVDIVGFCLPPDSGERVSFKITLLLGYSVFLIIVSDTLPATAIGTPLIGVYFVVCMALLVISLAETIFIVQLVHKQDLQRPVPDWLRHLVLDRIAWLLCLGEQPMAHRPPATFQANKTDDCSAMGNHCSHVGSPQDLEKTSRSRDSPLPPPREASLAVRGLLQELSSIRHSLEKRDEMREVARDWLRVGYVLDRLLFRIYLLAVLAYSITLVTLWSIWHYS
T1 sequence (Q9JJ16 whole entry): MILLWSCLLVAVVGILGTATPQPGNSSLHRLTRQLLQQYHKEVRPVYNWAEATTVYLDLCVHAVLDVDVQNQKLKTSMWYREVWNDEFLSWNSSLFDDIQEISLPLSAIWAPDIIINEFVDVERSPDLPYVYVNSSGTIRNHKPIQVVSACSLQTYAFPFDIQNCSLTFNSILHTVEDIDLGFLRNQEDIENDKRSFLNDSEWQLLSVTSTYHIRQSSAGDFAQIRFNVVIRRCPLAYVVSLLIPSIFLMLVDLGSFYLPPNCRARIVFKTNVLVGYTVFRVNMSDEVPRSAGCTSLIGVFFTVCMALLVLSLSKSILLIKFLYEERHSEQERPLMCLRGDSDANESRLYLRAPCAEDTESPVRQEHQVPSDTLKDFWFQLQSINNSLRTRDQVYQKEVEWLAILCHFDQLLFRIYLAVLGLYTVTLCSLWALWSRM

| SMILES | pKi |
| --- | --- |
| CCCC[N+]12CCCC(C1)C(NC(=O)c1cc(Cl)c(N)cc1OC)CC2 (centres undefined) | 6.90 |
| CCN(CC)CCNC(=O)c1cc(Cl)c(N)cc1OC [METOCLOPRAMIDE] | 6.80 |
| CCn1c(=O)n(C(=O)NC2CC3CCC(C2)N3C)c2ccccc21 (centres undefined) | 8.40 |
| CC(C)n1c(=O)n(C(=O)NC2CC3CCC(C2)N3C)c2ccccc21 (centres undefined) | 8.80 |
| COc1cc(N)c(Cl)cc1C(=O)NC1CCN2CCCC1C2 (centres undefined) [RENZAPRIDE] | 8.30 |
